The values that follow come from patent US20240294551A1 (AMGEN INC., priority 2022, published 2024).

The test system of experiment [1] is AsPC-1 cells. Briefly: AsPC-1 CTG Assay (CellTiter-Glo cell viability). The conditions noted are these: AsPC-1, 72 h, first value of the cell, read-out: G12D/C/V Cell Proliferation CTG (72 h) AsPC-1. It counts as cell-based, human. In a few lines:
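IC50 values derive from 4-parameter logistic fits of CellTiter-Glo luminescence, expressed relative to DMSO. Compound dilution series were applied to overnight-seeded AsPC-1 or SW620 cells (RPMI 1640, 10% FBS) for 72 h at 37 °C, 5% CO2.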
Background: In ATP-based viability assays light output follows the ATP content of the culture.

Experiment [2] concerns the target His-tagged KRAS G12D protein (Homo sapiens (Human), UniProt P01116, G12D). Briefly: KRAS G12D TR-FRET Assay. Type of experiment: binding. The conditions noted are these: read-out: KRAS G12D Binding IC50. In outline: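 Each incubation ran at room temperature: enzyme with compound for 30 minutes, peptide for one hour, and detection reagents (0.4 nM europium anti-6×His, 5 nM streptavidin-d2) for one hour more. Protein and peptide stocks were each diluted to 20 nM before addition.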

For experiment [3], the system named is Phosphorylation of ERK1/2 in AsPC-1 cells. Kind of experiment: Phospho-ERK1/2 MSD Assay. It counts as cell-based, human. The conditions noted are these: read-out: 2 h p-ERK (AsPC-1 cells), IC50. In a few lines:
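Read-out: MSD electrochemiluminescent detection of phosphorylated ERK1/2 in whole-cell lysates, fitted to a 4-parameter logistic curve for IC50. Prior to lysis, AsPC-1 cells (25,000 per well) received a 2 h compound dose-response at 37 °C.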

In experiment [4] the target is GDP-bound KRAS protein (aa 1-169), containing both G12D and C118A amino acid substitutions (Homo sapiens (Human), UniProt P01116, C118A/G12D). Kind of experiment: KRAS G12D Coupled Nucleotide Exchange Assay. The conditions noted are these: read-out: KRAS G12D Coupled Exchange IC50. It counts as biochemical.

Like-named read-outs stand apart in the source and are kept apart here.

Chain of GDP-bound KRAS protein (aa 1-169), containing both G12D and C118A amino acid substitutions (P01116 other isoform, or with tags, fused parts or gaps G12D/C118A): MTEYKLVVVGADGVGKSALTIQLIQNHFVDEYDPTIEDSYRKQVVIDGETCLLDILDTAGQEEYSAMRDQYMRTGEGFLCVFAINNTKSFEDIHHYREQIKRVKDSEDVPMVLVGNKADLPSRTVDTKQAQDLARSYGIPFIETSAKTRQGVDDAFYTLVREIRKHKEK
Chain of His-tagged KRAS G12D protein (P01116 other isoform, or with tags, fused parts or gaps G12D): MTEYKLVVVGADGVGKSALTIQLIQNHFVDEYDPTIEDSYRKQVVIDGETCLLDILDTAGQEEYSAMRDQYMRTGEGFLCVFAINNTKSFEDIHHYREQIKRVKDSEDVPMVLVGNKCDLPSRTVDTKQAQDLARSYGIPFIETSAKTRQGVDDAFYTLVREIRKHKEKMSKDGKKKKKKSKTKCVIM

As to `C[C@@]12COCCN(C1)c1nc(OC[C@@H]3CC[C@H]4COCCN43)nc3c(F)c(ncc13)-c1c(c(Cl)cc3[nH]ncc13)CCCOC(=O)O2` [Example 309, (26S)-18-chloro-32-fluoro-4-((6S,8aS)-hexahydro-1H-pyrrolo[2,1-c][1,4]oxazin-6-ylmethoxy)-26-methyl-23,25,28-trioxa-1,3,5,9,14,15-hexaazahexacyclo[24.4.1.1~6,10~.0~2,7~.0~11,19~.0~12,16~]dotriaconta-2,4,6,8,10(32),11,13,16,18-nonaen-24-one], the IC50 in experiment [1] (Homo sapiens, ASPC1, 72 h) was determined as 153 nM; in experiment [2] it was 10 nM; in experiment [3] (Homo sapiens, ASPC1, 2 h) it was 71.6 nM; in experiment [4], 4 nM.
On the same counts, the results for `O=C1OCCCc2c(Cl)cc3[nH]ncc3c2-c2ncc3c(nc(OC[C@@]45CCCN4C[C@H](F)C5)nc3c2F)N2CCOC[C@]3(C2)C[C@@H](C3)O1` [Example 312, (1S,3S)-11-chloro-34-fluoro-25-(((2R,7aS)-2-fluorotetrahydro-1H-pyrrolo[1,2-a]pyrrol-7a(5H)-yl)methoxy)-4,6,31-trioxa-14,15,20,24,26,28-hexaazaheptacyclo[26.4.1.1~1,3~.1~19,23~.0~10,18~.0~13,17~.0~22,27~]pentatriaconta-10,12,15,17,19(34),20,22,24,26-nonaen-5-one] are 1080 nM, 4 nM, 342 nM and 2 nM.
For `O=C1OCCCc2c(Cl)cc3[nH]ncc3c2-c2ncc3c(nc(OC[C@@]45CCCN4C[C@H](F)C5)nc3c2F)N2CCOCC3(CC(C3)O1)C2` [Example 313] the same measures were 1210 nM, 19 nM, 462 nM and 11 nM.
On the same counts, the results for `CO[C@@H]1C[C@@H](COc2nc3c4cnc(c(F)c4n2)-c2c(c(Cl)cc4[nH]ncc24)CCCOC(=O)O[C@]2(C)COCCN3C2)N(C)C1` [Example 319, (26S)-18-chloro-32-fluoro-4-(((2S,4R)-4-methoxy-1-methyl-2-pyrrolidinyl)methoxy)-26-methyl-23,25,28-trioxa-1,3,5,9,14,15-hexaazahexacyclo[24.4.1.1~6,10~.0~2,7~.0~11,19~.0~12,16~]dotriaconta-2,4,6,8,10(32),11,13,16,18-nonaen-24-one] are 134 nM, 6 nM, 26.7 nM and 3 nM.
For the compound `O=C1OCCCc2c(Cl)cc3[nH]ncc3c2-c2ncc3c(nc(OC[C@@]45CCCN4C[C@H](F)C5)nc3c2F)N2CCC[C@]3(C2)C[C@H](C3)O1` [Example 323, (1R,3S)-11-chloro-33-fluoro-25-(((2R,7aS)-2-fluorotetrahydro-1H-pyrrolo[1,2-a]pyrrol-7a(5H)-yl)methoxy)-4,6-dioxa-14,15,20,24,26,28-hexaazaheptacyclo[26.3.1.1~1,3~.1~19,23~.0~10,18~.0~13,17~.0~22,27~]tetratriaconta-10,12,15,17,19(33),20,22,24,26-nonaen-5-one], the IC50 in experiment [1] was 318 nM; in experiment [2], 5 nM; in experiment [3] (2 h), 30.5 nM; in experiment [4], 2 nM.
As to `C[C@@H]1C[C@@H](COc2nc3c4cnc(c(F)c4n2)-c2c(c(Cl)cc4[nH]ncc24)CCCOC(=O)O[C@@H]2COCCN3C2)N(C)C1` [Example 328, (26S)-18-chloro-4-(((2S,4R)-1,4-dimethyl-2-pyrrolidinyl)methoxy)-32-fluoro-23,25,28-trioxa-1,3,5,9,14,15-hexaazahexacyclo[24.4.1.1~6,10~.0~2,7~.0~11,19~.0~12,16~]dotriaconta-2,4,6(32),7,9,11,13,16,18-nonaen-24-one], the IC50 came to 50 nM in experiment [1] (Homo sapiens, ASPC1, 72 h); 5 nM in experiment [2]; 29 nM in experiment [3] (Homo sapiens, ASPC1, 2 h); 3 nM in experiment [4].
